Laboratory results reported in US20260231994A1, “TASTE-ENHANCING COMPOSITION, METHOD FOR PRODUCING SAME, FOOD PRODUCT, AND METHOD FOR ENHANCING TASTE OF FOOD PRODUCT” (HOUSE FOODS GROUP INC., priority 2023, published 2026).

How the values were obtained:
Type in all cases: in vivo
[1] = Experiment 6 sensory evaluation of cyclic dipeptides, “middle fullness (enhanced thickness)”
Summary of the method: (§1)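 Reduced-sodium curry roux (44 g in 300 g hot water) was spiked with cyclic dipeptide solutions matching heat-treated coriander or paprika levels, at 0.5% or 1.0% (w/w) final. Three evaluators scored each sample against unspiked reduced-sodium and common roux. Mean scores were graded F to AA.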

[2] = Experiment 6 sensory evaluation of cyclic dipeptides, “boosting of last flavor (aftertaste)”
Summary of the method: as §1

[3] = Experiment 6 sensory evaluation of cyclic dipeptides, “top sharp saltiness”
Summary of the method: as §1

[4] = Additive amount paprika 0.5%, reduced-sodium curry roux
[5] = heat-treated paprika equivalent aqueous solution of cyclic dipeptide, final 1.0% (w/w) in reduced-sodium curry roux dispersion
[6] = heat-treated paprika equivalent aqueous solution of cyclic dipeptide, final 1.0% (w/w) in reduced-sodium curry roux dispersion, 3 evaluators
[7] = Additive amount paprika 0.5% (heat-treated paprika equivalent aqueous solution, final 0.5% (w/w)), reduced-sodium curry roux
[8] = Additive amount coriander 0.5%, reduced-sodium curry roux
[9] = heat-treated coriander equivalent aqueous solution of cyclic dipeptide, final 1.0% (w/w) in reduced-sodium curry roux dispersion
[10] = heat-treated coriander equivalent aqueous solution of cyclic dipeptide, final 1.0% (w/w) in reduced-sodium curry roux dispersion, 3 evaluators
[11] = Additive amount coriander 0.5% (heat-treated coriander equivalent aqueous solution, final 0.5% (w/w)), reduced-sodium curry roux

## cyclic (Phe-Tyr) [Coriander ID 41]
[1]; [4]
  Middle fullness Average: 2.0 points
  Middle fullness Evaluation: B (“B” when it was 2.0 or higher and 2.5 or lower)
[1]; [5]
  Middle fullness Evaluation: AA (“AA” when it was 3.0 or higher)
[1]; [6]
  Middle fullness Average: 3.0 points
[2]; [4]
  Bosting of last flavor Average: 2.0 points
  Bosting of last flavor Evaluation: B (“B” when it was 2.0 or higher and 2.5 or lower)
[2]; [5]
  Bosting of last flavor Evaluation: A (“A” when it was 2.6 or higher and 2.9 or lower)
[2]; [6]
  Bosting of last flavor Average: 2.8 points
[3]; [7]
  Top sharp saltiness Average: 1.8 points
[3]; [4]
  Top sharp saltiness Evaluation: C (“C” when it was 1.1 or higher and 1.9 or lower)
[3]; [5]
  Top sharp saltiness Evaluation: A (“A” when it was 2.6 or higher and 2.9 or lower)
[3]; [6]
  Top sharp saltiness Average: 2.7 points

## cyclic (Pro-Asp) [Coriander ID 16]
[1]; [4]
  Middle fullness Average: 2.0 points
  Middle fullness Evaluation: B (“B” when it was 2.0 or higher and 2.5 or lower)
[1]; [5]
  Middle fullness Evaluation: B (“B” when it was 2.0 or higher and 2.5 or lower)
[1]; [6]
  Middle fullness Average: 2.0 points
[2]; [4]
  Bosting of last flavor Average: 2.2 points
  Bosting of last flavor Evaluation: B (“B” when it was 2.0 or higher and 2.5 or lower)
[2]; [5]
  Bosting of last flavor Evaluation: C (“C” when it was 1.1 or higher and 1.9 or lower)
[2]; [6]
  Bosting of last flavor Average: 1.8 points
[3]; [7]
  Top sharp saltiness Average: 1.8 points
[3]; [4]
  Top sharp saltiness Evaluation: C (“C” when it was 1.1 or higher and 1.9 or lower)
[3]; [5]
  Top sharp saltiness Evaluation: C (“C” when it was 1.1 or higher and 1.9 or lower)
[3]; [6]
  Top sharp saltiness Average: 1.8 points

## cyclic (Pro-Glu) [Coriander ID 48]
[1]; [8]
  Middle fullness Average: 1.7 points
  Middle fullness Evaluation: C (“C” when it was 1.1 or higher and 1.9 or lower)
[1]; [9]
  Middle fullness Evaluation: B (“B” when it was 2.0 or higher and 2.5 or lower)
[1]; [10]
  Middle fullness Average: 2.3 points
[2]; [8]
  Bosting of last flavor Average: 1.8 points
  Bosting of last flavor Evaluation: C (“C” when it was 1.1 or higher and 1.9 or lower)
[2]; [9]
  Bosting of last flavor Evaluation: B (“B” when it was 2.0 or higher and 2.5 or lower)
[2]; [10]
  Bosting of last flavor Average: 2.3 points
[3]; [11]
  Top sharp saltiness Average: 1.7 points
[3]; [8]
  Top sharp saltiness Evaluation: C (“C” when it was 1.1 or higher and 1.9 or lower)
[3]; [9]
  Top sharp saltiness Evaluation: B (“B” when it was 2.0 or higher and 2.5 or lower)
[3]; [10]
  Top sharp saltiness Average: 2.0 points

## cyclic (Pro-Leu/Ile) [Coriander ID 39]
[1]; [8]
  Middle fullness Average: 1.8 points
  Middle fullness Evaluation: C (“C” when it was 1.1 or higher and 1.9 or lower)
[1]; [9]
  Middle fullness Evaluation: C (“C” when it was 1.1 or higher and 1.9 or lower)
[1]; [10]
  Middle fullness Average: 1.8 points
[2]; [8]
  Bosting of last flavor Average: 2.2 points
  Bosting of last flavor Evaluation: B (“B” when it was 2.0 or higher and 2.5 or lower)
[2]; [9]
  Bosting of last flavor Evaluation: C (“C” when it was 1.1 or higher and 1.9 or lower)
[2]; [10]
  Bosting of last flavor Average: 1.7 points
[3]; [11]
  Top sharp saltiness Average: 1.5 points
[3]; [8]
  Top sharp saltiness Evaluation: C (“C” when it was 1.1 or higher and 1.9 or lower)
[3]; [9]
  Top sharp saltiness Evaluation: C (“C” when it was 1.1 or higher and 1.9 or lower)
[3]; [10]
  Top sharp saltiness Average: 1.8 points

## cyclic (Pro-Pro) [Coriander ID 18]
[1]; [8]
  Middle fullness Average: 2.5 points
  Middle fullness Evaluation: B (“B” when it was 2.0 or higher and 2.5 or lower)
[1]; [9]
  Middle fullness Evaluation: A (“A” when it was 2.6 or higher and 2.9 or lower)
[1]; [10]
  Middle fullness Average: 2.7 points
[2]; [8]
  Bosting of last flavor Average: 2.3 points
  Bosting of last flavor Evaluation: B (“B” when it was 2.0 or higher and 2.5 or lower)
[2]; [9]
  Bosting of last flavor Evaluation: B (“B” when it was 2.0 or higher and 2.5 or lower)
[2]; [10]
  Bosting of last flavor Average: 2.5 points
[3]; [11]
  Top sharp saltiness Average: 2.2 points
[3]; [8]
  Top sharp saltiness Evaluation: B (“B” when it was 2.0 or higher and 2.5 or lower)
[3]; [9]
  Top sharp saltiness Evaluation: B (“B” when it was 2.0 or higher and 2.5 or lower)
[3]; [10]
  Top sharp saltiness Average: 2.3 points

## cyclic (Pro-Tyr) [Coriander ID 31]
[1]; [8]
  Middle fullness Average: 2.5 points
  Middle fullness Evaluation: B (“B” when it was 2.0 or higher and 2.5 or lower)
[1]; [9]
  Middle fullness Evaluation: B (“B” when it was 2.0 or higher and 2.5 or lower)
[1]; [10]
  Middle fullness Average: 2.0 points
[2]; [8]
  Bosting of last flavor Average: 2.5 points
  Bosting of last flavor Evaluation: B (“B” when it was 2.0 or higher and 2.5 or lower)
[2]; [9]
  Bosting of last flavor Evaluation: B (“B” when it was 2.0 or higher and 2.5 or lower)
[2]; [10]
  Bosting of last flavor Average: 2.0 points
[3]; [11]
  Top sharp saltiness Average: 2.5 points
[3]; [8]
  Top sharp saltiness Evaluation: B (“B” when it was 2.0 or higher and 2.5 or lower)
[3]; [9]
  Top sharp saltiness Evaluation: B (“B” when it was 2.0 or higher and 2.5 or lower)
[3]; [10]
  Top sharp saltiness Average: 2.0 points

## cyclic (Thr-Leu/Ile) [Coriander ID 3]
[1]; [4]
  Middle fullness Average: 2.5 points
  Middle fullness Evaluation: B (“B” when it was 2.0 or higher and 2.5 or lower)
[1]; [5]
  Middle fullness Evaluation: B (“B” when it was 2.0 or higher and 2.5 or lower)
[1]; [6]
  Middle fullness Average: 2.2 points
[2]; [4]
  Bosting of last flavor Average: 3.0 points
  Bosting of last flavor Evaluation: AA (“AA” when it was 3.0 or higher)
[2]; [5]
  Bosting of last flavor Evaluation: C (“C” when it was 1.1 or higher and 1.9 or lower)
[2]; [6]
  Bosting of last flavor Average: 1.7 points
[3]; [7]
  Top sharp saltiness Average: 2.0 points
[3]; [4]
  Top sharp saltiness Evaluation: B (“B” when it was 2.0 or higher and 2.5 or lower)
[3]; [5]
  Top sharp saltiness Evaluation: C (“C” when it was 1.1 or higher and 1.9 or lower)
[3]; [6]
  Top sharp saltiness Average: 1.7 points

## cyclic (Tyr-Asp)
[1]; [4]
  Middle fullness Average: 2.1 points
  Middle fullness Evaluation: B (“B” when it was 2.0 or higher and 2.5 or lower)
[1]; [5]
  Middle fullness Evaluation: A (“A” when it was 2.6 or higher and 2.9 or lower)
[1]; [6]
  Middle fullness Average: 2.8 points
[2]; [4]
  Bosting of last flavor Average: 2.1 points
  Bosting of last flavor Evaluation: B (“B” when it was 2.0 or higher and 2.5 or lower)
[2]; [5]
  Bosting of last flavor Evaluation: A (“A” when it was 2.6 or higher and 2.9 or lower)
[2]; [6]
  Bosting of last flavor Average: 2.8 points
[3]; [7]
  Top sharp saltiness Average: 2.1 points
[3]; [4]
  Top sharp saltiness Evaluation: B (“B” when it was 2.0 or higher and 2.5 or lower)
[3]; [5]
  Top sharp saltiness Evaluation: B (“B” when it was 2.0 or higher and 2.5 or lower)
[3]; [6]
  Top sharp saltiness Average: 2.5 points

## cyclic (Tyr-His) [Coriander ID 50]
[1]; [8]
  Middle fullness Average: 2.5 points
  Middle fullness Evaluation: B (“B” when it was 2.0 or higher and 2.5 or lower)
[1]; [9]
  Middle fullness Evaluation: AA (“AA” when it was 3.0 or higher)
[1]; [10]
  Middle fullness Average: 3.3 points
[2]; [8]
  Bosting of last flavor Average: 2.8 points
  Bosting of last flavor Evaluation: A (“A” when it was 2.6 or higher and 2.9 or lower)
[2]; [9]
  Bosting of last flavor Evaluation: AA (“AA” when it was 3.0 or higher)
[2]; [10]
  Bosting of last flavor Average: 3.0 points
[3]; [11]
  Top sharp saltiness Average: 2.3 points
[3]; [8]
  Top sharp saltiness Evaluation: B (“B” when it was 2.0 or higher and 2.5 or lower)
[3]; [9]
  Top sharp saltiness Evaluation: AA (“AA” when it was 3.0 or higher)
[3]; [10]
  Top sharp saltiness Average: 3.3 points

## cyclic (Val-Arg) [Coriander ID 20]
[1]; [8]
  Middle fullness Average: 3.3 points
  Middle fullness Evaluation: AA (“AA” when it was 3.0 or higher)
[1]; [9]
  Middle fullness Evaluation: B (“B” when it was 2.0 or higher and 2.5 or lower)
[1]; [10]
  Middle fullness Average: 2.0 points
[2]; [8]
  Bosting of last flavor Average: 3.7 points
  Bosting of last flavor Evaluation: AA (“AA” when it was 3.0 or higher)
[2]; [9]
  Bosting of last flavor Evaluation: B (“B” when it was 2.0 or higher and 2.5 or lower)
[2]; [10]
  Bosting of last flavor Average: 2.2 points
[3]; [11]
  Top sharp saltiness Average: 2.7 points
[3]; [8]
  Top sharp saltiness Evaluation: A (“A” when it was 2.6 or higher and 2.9 or lower)
[3]; [9]
  Top sharp saltiness Evaluation: C (“C” when it was 1.1 or higher and 1.9 or lower)
[3]; [10]
  Top sharp saltiness Average: 1.7 points

## cyclic (Val-Phe) [Coriander ID 38]
[1]; [4]
  Middle fullness Average: 3.2 points
  Middle fullness Evaluation: AA (“AA” when it was 3.0 or higher)
[1]; [5]
  Middle fullness Evaluation: A (“A” when it was 2.6 or higher and 2.9 or lower)
[1]; [6]
  Middle fullness Average: 2.8 points
[2]; [4]
  Bosting of last flavor Average: 3.3 points
  Bosting of last flavor Evaluation: AA (“AA” when it was 3.0 or higher)
[2]; [5]
  Bosting of last flavor Evaluation: AA (“AA” when it was 3.0 or higher)
[2]; [6]
  Bosting of last flavor Average: 3.2 points
[3]; [7]
  Top sharp saltiness Average: 2.8 points
[3]; [4]
  Top sharp saltiness Evaluation: A (“A” when it was 2.6 or higher and 2.9 or lower)
[3]; [5]
  Top sharp saltiness Evaluation: A (“A” when it was 2.6 or higher and 2.9 or lower)
[3]; [6]
  Top sharp saltiness Average: 2.8 points

## cyclic (Val-Ser) [Coriander ID 59]
[1]; [4]
  Middle fullness Average: 2.7 points
  Middle fullness Evaluation: A (“A” when it was 2.6 or higher and 2.9 or lower)
[1]; [5]
  Middle fullness Evaluation: B (“B” when it was 2.0 or higher and 2.5 or lower)
[1]; [6]
  Middle fullness Average: 2.2 points
[2]; [4]
  Bosting of last flavor Average: 2.7 points
  Bosting of last flavor Evaluation: A (“A” when it was 2.6 or higher and 2.9 or lower)
[2]; [5]
  Bosting of last flavor Evaluation: A (“A” when it was 2.6 or higher and 2.9 or lower)
[2]; [6]
  Bosting of last flavor Average: 2.8 points
[3]; [7]
  Top sharp saltiness Average: 2.5 points
[3]; [4]
  Top sharp saltiness Evaluation: B (“B” when it was 2.0 or higher and 2.5 or lower)
[3]; [5]
  Top sharp saltiness Evaluation: C (“C” when it was 1.1 or higher and 1.9 or lower)
[3]; [6]
  Top sharp saltiness Average: 1.8 points
